The values below come from patent US8569336B2, “Compounds for the treatment of inflammatory disorders” (priority 2008, dated 2013).

pIC50, pKi: −log10 of the molar value. Like-named read-outs stand apart in the source and are kept apart here.

Test [1] concerns the target T1, purified catalytic domain of recombinant human TACE (rhTACEc) (Homo sapiens, UniProt P78536, N452Q/S266A).
T1 construct: 6xHis (C); made in house; host or cells: baculovirus/Hi5 insect cells
Briefly: TACE kinetic assay: cleavage of internally quenched peptide substrate TNF-FRET 2 (Ki). It counts as biochemical. To be noted: TNF-FRET 2 substrate.

Test [2] concerns TNF-α production from human whole blood. The experiment in a line: Inhibition of TNF-α production from human whole blood (hWBA), LPS stimulated, ELISA. It counts as cell-based. To be noted: Homo sapiens.
The mark [3] stands for this setting: LPS-stimulated human whole blood, TNF-α by ELISA, read-out: hWBA (IC50).
Setting [4] is: human whole blood diluted 1:1, LPS stimulated, TNF-α by ELISA, read-out: hWBA (IC50).

T1 sequence (P78536 215-477 S266A/N452Q): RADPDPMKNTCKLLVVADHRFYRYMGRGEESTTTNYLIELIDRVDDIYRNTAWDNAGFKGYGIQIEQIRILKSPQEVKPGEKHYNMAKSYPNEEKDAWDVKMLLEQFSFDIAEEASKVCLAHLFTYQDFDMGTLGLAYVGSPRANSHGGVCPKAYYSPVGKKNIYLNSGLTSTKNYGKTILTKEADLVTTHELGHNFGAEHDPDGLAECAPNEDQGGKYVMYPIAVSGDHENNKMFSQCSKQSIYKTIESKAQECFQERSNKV

With `COc1cc2c(cc1OC)C(=O)N(C[C@@]1(c3cc4cnccc4o3)NC(=O)NC1=O)C2` [Compound 200], the pKi in test [1] (read-out: Ki) was 8.14. The pIC50 in test [2] (setting [3]) was at most 5.00.
On the same counts, the results for `COc1cc2c(cc1OC)C(=O)N(C[C@]1(c3cc4cnccc4o3)NC(=O)NC1=O)C2` [Compound 201] are 6.83 and 5.18.
On to `COc1ccc2c(c1F)C(=O)N(C[C@@]1(c3cc4c(C)nc(C)cc4o3)NC(=O)NC1=O)C2` [Compound 202], for which, in test [1] (read-out: Ki), the negative-log Ki (pKi) was 9.25. Moreover, in test [2] (setting [3]), the pIC50 was 6.26.
The corresponding values for `COc1ccc2c(c1F)C(=O)N(C[C@@]1(c3cc4cc(C)nc(C)c4o3)NC(=O)NC1=O)C2` [Compound 203] are 10.22 and 6.03.
Turning to `COc1ccc2c(c1)C(=O)N(C[C@@]1(c3cc4cc(C)nc(C)c4o3)NC(=O)NC1=O)C2` [Compound 204], the pKi in test [1] (read-out: Ki) is 9.18. Further, in test [2] (setting [3]), the pIC50 is 5.39.
On the same counts, the results for `COc1ccc2c(c1F)C(=O)N(C[C@@]1(c3cc4cc(-c5cc(=O)[nH]c(N)n5)ccc4o3)NC(=O)NC1=O)C2` [Compound 300] are 9.27 and 6.44.
Regarding `COc1ccc2c(c1)C(=O)N(C[C@@]1(c3cc4cc(C5CCNCC5)ncc4o3)NC(=O)NC1=O)C2` [Compound 301], the pKi in test [1] (read-out: Ki) is 8.98. For the same molecule, in test [2] (setting [3]), the negative logarithm of the IC50 (pIC50) was 6.79.
As for `COc1ccc2c(c1)C(=O)N(C[C@@]1(c3cc4cc(-c5cc(O)nc(N)n5)cnc4o3)NC(=O)NC1=O)C2` [Compound 302], the negative logarithm of the Ki (pKi) in test [1] (read-out: Ki) is 9.28. The pIC50 in test [2] (setting [3]) is 6.82.
The corresponding values for `COc1ccc2c(c1F)C(=O)N(C[C@@]1(c3cc4cncnc4o3)NC(=O)NC1=O)C2` [Compound 303] are 8.80 and 6.70.
On the same counts, the results for `COc1ccc2c(c1F)C(=O)N(C[C@@]1(c3cc4cnc(C)nc4o3)NC(=O)NC1=O)C2` [Compound 304] are 8.91 and 6.52.
In the case of `COc1ccc2c(c1)C(=O)N(C[C@@]1(c3cc4cc(-c5cnn(C)c5)ncc4o3)NC(=O)NC1=O)C2` [Compound 306], the pKi in test [1] (read-out: Ki) is 9.18. In test [2] (setting [3]), the negative-log IC50 (pIC50) is 6.18.
Consider `COc1ccc2c(c1)C(=O)N(C[C@@]1(c3cc4cc(N5CCNC5=O)ncc4o3)NC(=O)NC1=O)C2` [Compound 307], for which the pIC50 in test [2] (setting [3]) was 6.28.
Still for that read-out and setting: in the case of `CCN1CCN(c2cc3cc([C@]4(CN5Cc6ccc(OC)cc6C5=O)NC(=O)NC4=O)oc3cn2)CC1` [Compound 308] it was 6.46.
As for `CSc1ccc2c(c1)C(=O)N(C[C@@]1(c3cc4cnccc4o3)NC(=O)NC1=O)C2` [Compound 309], the pKi in test [1] (read-out: Ki) is 9.42. Besides, the pIC50 in test [2] (setting [3]) was 6.18.
On the same counts, the results for `COc1ccc2c(c1F)C(=O)N(C[C@@]1(c3ccc(-c4ccc(N)nc4)o3)NC(=O)NC1=O)C2` [Compound 310] are 10.68 and 6.61.
The corresponding values for `COc1ccc2c(c1)C(=O)N(C[C@@]1(c3cc4cc(C(N)C(F)(F)F)ccc4o3)NC(=O)NC1=O)C2` (some centres unmarked) [Compound 311] are 9.23 and 6.11.
For `COc1ccc2c(c1F)C(=O)N(C[C@]1(c3ccco3)NC(=O)NC1=O)C2` [Compound 312], the pKi in test [1] (read-out: Ki) was 6.30.
Consider `COc1ccc2c(c1F)C(=O)N(C[C@@]1(c3ccco3)NC(=O)NC1=O)C2` [Compound 313], for which the negative-log Ki (pKi) in test [1] (read-out: Ki) is 9.13. In addition, in test [2] (setting [3]), the pIC50 is 5.75.
The corresponding values for `COc1ccc2c(c1F)C(=O)N(C[C@@]1(c3ccc(-c4cccnc4)o3)NC(=O)NC1=O)C2` [Compound 314] are 9.35 and 6.27.
The corresponding values for `COc1ccc2c(c1)C(=O)N(C[C@@]1(c3cc4c(o3)CCN(S(C)(=O)=O)C4)NC(=O)NC1=O)C2` [Compound 316] are 9.09 and 6.30.
The corresponding values for `CCOC(=O)N1CCc2cc([C@]3(CN4Cc5ccc(OC)cc5C4=O)NC(=O)NC3=O)oc2C1` [Compound 317] are 8.67 and 6.15.
With `CCOC(=O)NCc1ccc2oc([C@]3(CN4Cc5ccc(OC)cc5C4=O)NC(=O)NC3=O)cc2c1` [Compound 324], the pIC50 in test [2] (setting [3]) is 5.77.
Still for that read-out and setting: in the case of `CCNC(=O)NCc1ccc2oc([C@]3(CN4Cc5ccc(OC)cc5C4=O)NC(=O)NC3=O)cc2c1` [Compound 325] it was 5.70; in that of `COc1ccc2c(c1)C(=O)N(C[C@@]1(c3cc4cc(CNC(=O)N(C)C)ccc4o3)NC(=O)NC1=O)C2` [Compound 326], 5.91.
Regarding `CCN1CCN(c2ccc3oc([C@@]4(CN5Cc6ccc(OCC7CC7)c(F)c6C5=O)NC(=O)NC4=O)cc3n2)CC1` [Compound 901], the pKi in test [1] (read-out: Ki) is 6.30.
`CCN1CCN(c2ccc(O)c(-c3ccc([C@]4(CN5Cc6ccc(OC)cc6C5=O)NC(=O)NC4=O)cc3)n2)CC1` [Compound 902]: the pIC50 in test [2] (setting [3]) is 5.82.
Consider `COc1ccc2c(c1F)C(=O)N(C[C@@]1(c3cc4cc(-c5c(C)nn(C)c5C)c(F)cc4o3)NC(=O)NC1=O)C2` [Compound 1182], for which the pKi in test [1] (read-out: Ki) is 9.39.
Consider `O=C1NC(=O)C(CN2Cc3ccccc3C2=O)(c2ccccc2)N1` (centres unmarked) [Compound 1297], for which, in test [1] (read-out: Ki), the pKi was 7.79.
For the molecule `COC(=O)NCCNc1nc2cc([C@]3(CN4Cc5ccc(OC)c(F)c5C4=O)NC(=O)NC3=O)oc2cc1F` [Compound 1319], the negative-log IC50 (pIC50) in test [2] (setting [3]) was 6.60.
Same read-out and setting: to `CCOC(=O)[C@H]1CCC(=O)N1c1ccc2oc([C@]3(CN4Cc5ccc(OC)cc5C4=O)NC(=O)NC3=O)cc2n1` [Compound 1502] belongs 5.86.
Regarding `COc1ccc2c(c1)C(=O)N(C[C@@]1(c3ccc(-c4ccc(F)c(C#N)c4)cc3)NC(=O)NC1=O)C2` [Compound 1506], the negative logarithm of the Ki (pKi) in test [1] (read-out: Ki) was 8.19.
Consider `COc1ccc2c(c1)C(=O)N(C[C@@]1(c3cc4nc(-c5ccc(S(N)(=O)=O)cc5)ccc4o3)NC(=O)NC1=O)C2` [Compound 1528], for which the pIC50 in test [2] (setting [3]) is 5.57.
Turning to `COc1ccc2c(c1F)C(=O)N(C[C@@]1(c3cc4nc(C)c(-c5ccc(N)nc5)cc4o3)NC(=O)NC1=O)C2` [Compound 1919], the negative-log IC50 (pIC50) in test [2] (read-out: hWBA (IC50), LPS-stimulated human whole blood, TNF-α by ELISA) was 6.51.
For `COC(=O)CCNc1nc2cc([C@]3(CN4Cc5ccc(OC)c(F)c5C4=O)NC(=O)NC3=O)oc2cc1F` [Compound 1921], the negative-log IC50 (pIC50) in test [2] (setting [3]) is 6.62.
The same measure, in the same setting: to `COC(=O)c1ccc2oc([C@]3(CN4Cc5ccc(OC)cc5C4=O)NC(=O)NC3=O)cc2n1` [Compound 1923] belongs 6.47.
In the case of `CNC(=O)c1cnc2cc([C@]3(CN4Cc5ccc(OC)cc5C4=O)NC(=O)NC3=O)oc2c1` [Compound 1930], in test [1] (Ki), the pKi was 9.06.
As to `COc1ccc2c(c1)C(=O)N(C[C@@]1(c3cc4ncc(C(=O)NCCN(C)C)cc4o3)NC(=O)NC1=O)C2` [Compound 1932], in test [2] (setting [3]), the pIC50 was 6.10.
Still for that read-out and setting: to `COCCNC(=O)c1cnc2cc([C@]3(CN4Cc5ccc(OC)cc5C4=O)NC(=O)NC3=O)oc2c1` [Compound 1933] belongs 6.18; to `CCN1CCN(C(=NO)c2cnc3cc([C@]4(CN5Cc6ccc(OC)cc6C5=O)NC(=O)NC4=O)oc3c2)CC1` [Compound 1934], 6.47; to `COc1ccc2c(c1)C(=O)N(C[C@@]1(c3cc4ncc(C(=NO)N5CCN(c6cnccn6)CC5)cc4o3)NC(=O)NC1=O)C2` [Compound 1935], 6.26.
On to `COc1ccc2c(c1)C(=O)N(C[C@@]1(c3cc4nc(NC(=O)c5cccnc5)ccc4o3)NC(=O)NC1=O)C2` [Compound 1947], for which the pIC50 in test [2] (setting [3]) was 6.27.
Turning to `COCCN1CCN(c2ccc3oc([C@]4(CN5Cc6ccc(OC)cc6C5=O)NC(=O)NC4=O)cc3n2)CC1` [Compound 2160], in test [2] (3.5 h, human whole blood diluted 1:1, LPS stimulated, 3.5 h, TNF-α by ELISA, read-out: hWBA (IC50)), the pIC50 was 6.48.
For the molecule `COc1ccc2c(c1)C(=O)N(C[C@@]1(c3cc4nc(NC(=O)c5cccnc5)ccc4o3)NC(=O)NC1=O)C2` [Compound 2313], the pIC50 in test [2] (setting [4]) was 6.27.
Still for that read-out and setting: to `COc1ccc2c(c1)C(=O)N(C[C@@]1(c3cc4nc(NS(C)(=O)=O)ccc4o3)NC(=O)NC1=O)C2` [Compound 2315] belongs 6.72.
On the same count and under the same terms, to `CCNC(=O)Nc1ccc2oc([C@]3(CN4Cc5ccc(OC)cc5C4=O)NC(=O)NC3=O)cc2n1` [Compound 2316] belongs 6.17; to `COc1ccc2c(c1)C(=O)N(C[C@@]1(c3cc4c(o3)CCN(S(C)(=O)=O)C4)NC(=O)NC1=O)C2` [Compound 2438], 6.30.
The same measure, in the same setting: to `CCOC(=O)N1CCc2cc([C@]3(CN4Cc5ccc(OC)cc5C4=O)NC(=O)NC3=O)oc2C1` [Compound 2439] belongs 6.15; to `COc1ccc2c(c1)C(=O)N(C[C@@]1(c3cc4c(o3)CCN(C(N)=O)C4)NC(=O)NC1=O)C2` [Compound 2440], 6.19; to `COc1ccc2c(c1)C(=O)N(C[C@@]1(c3cc4c(o3)CCN(C(=O)N(C)C)C4)NC(=O)NC1=O)C2` [Compound 2441], 6.30.
For the molecule `CCNC(=O)N1CCc2oc([C@]3(CN4Cc5ccc(OC)cc5C4=O)NC(=O)NC3=O)cc2C1` [Compound 2442], the negative-log IC50 (pIC50) in test [2] (setting [4]) is 6.51.
On the same count and under the same terms, in the case of `COc1ccc2c(c1)C(=O)N(C[C@@]1(c3cc4c(o3)CCN(C(=O)Nc3cccnc3)C4)NC(=O)NC1=O)C2` [Compound 2443] it was at most 3.00; in that of `COc1ccc2c(c1)C(=O)N(C[C@@]1(c3cc4cnc(C#N)cc4o3)NC(=O)NC1=O)C2` [Compound 2444], 6.12.
As to `CNC(=O)c1cnc2cc([C@]3(CN4Cc5ccc(OC)cc5C4=O)NC(=O)NC3=O)oc2c1` [Compound 2461], the negative-log Ki (pKi) in test [1] (Ki) is 9.06.
As to `COc1ccc2c(c1)C(=O)N(C[C@@]1(c3cc4ncc(C(=O)NCCN(C)C)cc4o3)NC(=O)NC1=O)C2` [Compound 2465], the pIC50 in test [2] (setting [4]) is 6.10.
With `COc1ccc2c(c1)C(=O)N(C[C@@]1(c3cc4nc(-c5ccc(S(N)(=O)=O)cc5)ccc4o3)NC(=O)NC1=O)C2` [Compound 2490], the negative-log IC50 (pIC50) in test [2] (setting [4]) is 5.57.
With `COc1ccc2c(c1F)C(=O)N(C[C@@]1(c3cc4cc5c(cc4o3)C(=O)NCCC5)NC(=O)NC1=O)C2` [Compound 2492], the pIC50 in test [2] (setting [4]) is 6.49.
